Experimental findings from patent EP1985624A2, “Single step method of radiofluorination of biologically active compounds or biomolecules” (Bayer Schering Pharma Aktiengesellschaft, priority 2007, dated 2008) are described below.

What is called pKi is the negative decadic logarithm of the Ki, by convention in mol/L.

pKi: −log10 of the molar value. *1 amine or outer side, *2 acyl side, *3 side chain or, on linkers, in order; H or OH if unused. Where a SMILES comes first, the peptide text is derived from it. [ ]: non-standard residue; d: D form. The star is where a group is joined. X3 = CC(C)[C@H](N[*:1])[C@H](O)CC(=O)[*:2]; Benzoyl(3-CN,4-F) = N#Cc1cc(C(=O)*)ccc1F; Benzoyl(3,4-F2) = O=C(c1ccc(F)c(F)c1)*; NMeH = CN[C@@H](Cc1c[nH]cn1)C(=O)O; X1 = CCC(C)C(CCC(=O)[*:2])N[*:1]; β3hI = CC[C@H](C)[C@H](N)CC(=O)O; Tle = CC(C)(C)[C@H](N)C(=O)O; β3hL = CC(C)C[C@H](N)CC(=O)O; Ava = NCCCCC(=O)O; βAla = NCCC(=O)O; Sar = CNCC(=O)O

Test system in one data set: not listed separately
The data set can be described thus: human serum stability of the F-18 labeled peptide (HPLC purity). The format is in vitro ADME. To be noted: 37°C for 90 min, purity assessed by HPLC (phosphate buffer and TFA mobile phases). The procedure: To qualify for pre-clinical and clinical use, it is necessary to establish the stability of the compound in human serum. The compound a 70 µL of human serum containing the F-18 labeled peptide (5.89 MBq/mL) was incubated at 37°C for 90 min. An aliquot was withdrawn at various intervals and the purity assessed by HPLC. The purity was evaluated in under two different conditions. Potassium hydrogen phosphate buffer system was used as a mobile phase to measure the stability of attached F-18 label. Column: C-18, Gradient: A: 10mM K2HPO4 pH:9,04; B: 10mM K2HPO4 pH:9,04/ACN 3/ 7; Flow rate: 2 mL, 5% A to 95% B in 7 min. [formula] [formula] [formula]
Trifluoroacetic acid system was used as a mobile phase to measure the stability of the entire molecule. Column: C-18, Gradient: A: 10% CH3CN: 90% H2O, B:90% CH3CN: 10% H2O containing 0.1 % TFA. [formula] [formula] [formula]
With “4-[18]Fluoro-3-cyano-benzoyl-Arg-Ava-Gln-Trp-Ala-Val-NMeGly-His-Sta-Leu-NH2 [IIA-a-1]”, the “stability in human serum” value is on record as “stable in human serum”.

The target of another data set is T1, human bombesin 2 receptor (GRPR) (Homo sapiens, UniProt P30550).
T1 construct: using GRPR-containing cell membranes (Perkin Elmer); purchased Perkin Elmer
T1 sequence (P30550 whole entry): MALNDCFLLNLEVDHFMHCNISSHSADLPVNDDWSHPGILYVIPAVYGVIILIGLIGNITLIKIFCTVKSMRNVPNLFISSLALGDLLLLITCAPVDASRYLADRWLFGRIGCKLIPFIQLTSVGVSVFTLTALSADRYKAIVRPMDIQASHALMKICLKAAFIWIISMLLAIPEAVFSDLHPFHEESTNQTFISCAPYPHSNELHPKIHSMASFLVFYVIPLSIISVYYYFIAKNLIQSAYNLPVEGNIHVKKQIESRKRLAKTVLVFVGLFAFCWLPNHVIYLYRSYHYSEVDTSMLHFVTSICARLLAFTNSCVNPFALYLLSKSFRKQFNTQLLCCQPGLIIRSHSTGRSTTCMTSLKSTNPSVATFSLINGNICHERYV
The data set can be described thus: competitive receptor-binding assay (scintillation proximity assay) with 125I-[Tyr4]-Bombesin.
Conditions: not given
The procedure: In vitro binding affinity and specificity of Bombesin analogs for the human bombesin 2 receptor (GRPR) were assessed via a competitive receptor-binding assay using ^125I-[Tyr^4]-Bombesin (Perkin Elmer; specific activity 81.4 TBq/mmol) as GRPR-specific radioligand. The assay was performed based on the scintillation proximity assay (SPA) technology (Carpenter JW et al., Meth Mol Biol 2002; 190:31-49) using GRPR-containing cell membranes (Perkin Elmer) and wheat germ agglutinin (WGA)-coated PVT beads (Amersham Bioscience).
Briefly, GRPR-containing membranes and WGA-PVT beads were mixed in assay buffer (50 mM Tris/HCl pH 7.2, 5 mM MgCl2, 1 mM EGTA, Complete protease inhibitor (Roche Diagnostics GmbH) and 0.3% PEI) to give final concentrations of approximately 100 µg/ml protein and 40 mg/ml PVT-SPA beads. The ligand ^125I-[Tyr^4]-Bombesin was diluted to 0.5 nM in assay buffer. The test compounds were dissolved in DMSO to give 1 mM stock solutions Later on, they were diluted in assay buffer to 8 pM - 1.5 µM.
The assay was then performed as follows: First, 10 µl of compound solution to be tested for binding were placed in white 384 well plates (Optiplate-384, Perkin-Elmer). At next, 20 µl GRPR/WGA-PVT bead mixture and 20 µl of the ligand solution were added. After 90 minutes incubation at room temperature, another 50 µl of assay buffer were added, the plate sealed and centrifuged for 10 min at 520xg at room temperature. Signals were measured in a TopCount (Perkin Elmer) for 1 min integration time per well. The IC50 was calculated by nonlinear regression using the GraFit data analysis software (Erithacus Software Ltd.). Furthermore, the KI was calculated based on the IC50 for test compound as well as the KD and the concentration of the ligand ^125I-[Tyr^4]-Bombesin. Experiments were done with quadruple samples.
The Binding affinities measured for all the cold F-19 compounds are listed Table 2.
Briefly, GRPR-containing membranes and WGA-PVT beads were mixed in assay buffer (50 mM Tris/HCl pH 7.2, 5 mM MgCl2, 1 mM EGTA, Complete protease inhibitor (Roche Diagnostics GmbH) and 0.3% PEI) to give final concentrations of approximately 100 µg/ml protein and 40 mg/ml PVT-SPA beads. The ligand ^125I-[Tyr^4]-Bombesin was diluted to 0.5 nM in assay buffer. The test compounds were dissolved in DMSO to give 1 mM stock solutions Lateron, they were diluted in assay buffer to 8 pM - 1.5 µM.
In general terms: In a scintillation proximity assay essentially only radioactivity close to the scintillant gives light.
`CC(C)C[C@H](NC(=O)[C@H](Cc1ccccc1)NC(=O)[C@@H](Cc1c[nH]cn1)NC(=O)CCNC(=O)[C@@H](NC(=O)[C@H](C)NC(=O)[C@H](Cc1c[nH]c2ccccc12)NC(=O)[C@H](CCC(N)=O)NC(=O)CCCCNC(=O)c1ccc(F)c(F)c1)C(C)C)C(N)=O` [IIB-a-55] ({Benzoyl(3,4-F2)-Ava}-QWAV[βAla][dH]FL-NH2) showed a negative-log Ki (pKi) of 7.72.
In the case of `CCC(C)C(CCC(=O)N[C@@H](CC(C)C)C(N)=O)NC(=O)[C@H](Cc1c[nH]cn1)NC(=O)CNC(=O)[C@@H](NC(=O)[C@H](C)NC(=O)[C@H](Cc1c[nH]c2ccccc12)NC(=O)[C@H](CCC(N)=O)NC(=O)CCCCNC(=O)c1ccc(F)c(C#N)c1)C(C)C` (stereo partly drawn) [IIB-a-17, 4-[19]-Fluoro-3-cyano-benzoyl-Ava-Gln-Trp-Ala-Val-Gly-His-4-Am,S-MeHpA-Leu-NH2] ({Benzoyl(3-CN,4-F)-Ava}-QWAVGH[X1]L-NH2), the pKi is 8.72.
On to `CC(C)C[C@H](NC(=O)[C@H](Cc1ccccc1)NC(=O)[C@H](Cc1c[nH]cn1)N(C)C(=O)CCNC(=O)[C@@H](NC(=O)[C@H](C)NC(=O)[C@H](Cc1c[nH]c2ccccc12)NC(=O)[C@H](CCC(N)=O)NC(=O)CCCCNC(=O)c1ccc(F)c(F)c1)C(C)C)C(N)=O` [IIB-a-54] ({Benzoyl(3,4-F2)-Ava}-QWAV[βAla][NMeH]FL-NH2), for which the negative-log Ki (pKi) was 9.40.
Turning to `CC(C)C[C@H](NC(=O)C[C@@H](O)[C@@H](NC(=O)[C@H](Cc1c[nH]cn1)NC(=O)CN(C)C(=O)[C@@H](NC(=O)[C@H](C)NC(=O)[C@H](Cc1c[nH]c2ccccc12)NC(=O)[C@H](CCC(N)=O)NC(=O)CCCCNC(=O)c1ccc(F)c(F)c1)C(C)C)C(C)C)C(N)=O` [IIB-a-51] ({Benzoyl(3,4-F2)-Ava}-QWAV[Sar]H[X3]L-NH2), the pKi is less than 7.60.
Compound `CCC(C)C(CCC(=O)N[C@@H](CC(C)C)C(N)=O)NC(=O)[C@H](Cc1c[nH]cn1)N(C)C(=O)CNC(=O)[C@@H](NC(=O)[C@H](C)NC(=O)[C@H](Cc1c[nH]c2ccccc12)NC(=O)[C@H](CCC(N)=O)NC(=O)CCCCNC(=O)c1ccc(F)c(F)c1)C(C)C` (stereo partly drawn) [IIB-a-50, 3,4-[19]Difluorobenzoyl-Ava-Gln-Trp-Ala-Val-Gly-NMeHis-4-Am,5-MeHpA-Leu-NH2] ({Benzoyl(3,4-F2)-Ava}-QWAVG[NMeH][X1]L-NH2) had a pKi of less than 7.60.

Still in this data set, the particulars now being: GRPR-containing cell membranes, 125I-[Tyr4]-Bombesin, 90 minutes at room temperature; Table 2, B1 = CO; read-out: Ki.
Turning to `CC[C@H](C)[C@@H](CC(=O)N[C@@H](CC(C)C)C(N)=O)NC(=O)[C@H](Cc1c[nH]cn1)NC(=O)CCNC(=O)[C@@H](NC(=O)[C@H](C)NC(=O)[C@H](Cc1c[nH]c2ccccc12)NC(=O)[C@H](CCC(N)=O)NC(=O)CCCCNC(=O)c1ccc(F)c(F)c1)C(C)C` [IIB-a-57] ({Benzoyl(3,4-F2)-Ava}-QWAV[βAla]H[β3hI]L-NH2), the pKi was less than 7.30.
As for `CC(C)C[C@@H](CC(=O)N[C@H](C(N)=O)C(C)(C)C)NC(=O)[C@H](Cc1c[nH]cn1)NC(=O)CCNC(=O)[C@@H](NC(=O)[C@H](C)NC(=O)[C@H](Cc1c[nH]c2ccccc12)NC(=O)[C@H](CCC(N)=O)NC(=O)CCCCNC(=O)c1ccc(F)c(F)c1)C(C)C` [IIB-a-58] ({Benzoyl(3,4-F2)-Ava}-QWAV[βAla]H[β3hL][Tle]-NH2), the pKi was less than 7.30.
`CC(C)C[C@@H](CC(=O)N[C@@H](CC(C)C)C(N)=O)NC(=O)[C@H](Cc1c[nH]cn1)NC(=O)CCNC(=O)[C@@H](NC(=O)[C@H](C)NC(=O)[C@H](Cc1c[nH]c2ccccc12)NC(=O)[C@H](CCC(N)=O)NC(=O)CCCCNC(=O)c1ccc(F)c(F)c1)C(C)C` [IIB-a-56] ({Benzoyl(3,4-F2)-Ava}-QWAV[βAla]H[β3hL]L-NH2): the pKi is 7.35.
